According to US20080194470A1, “Nim811 In Cerebral Ischemia and Brain and Spinal Cord Injury” (Novartis AG, priority 2004, published 2008):

Test system: isolated rodent brain-derived mitochondria
Details: under energized and de-energized conditions; comparable to the effects of cyclosporine A
Source text: Spinal cord injury model (in vivo) • Adult Lewis rats are injured microsurgically by transecting the dorsal half of the spinal cord bilaterally at the level of the eighth thoracic vertebra. Laminectomy, anesthesia and surgery are described in Schnell and Schwab, Eur J Neurosci, Vol. 5, pp. 1156-1171 (1993). […] Tamura et al., J Cereb Blood Flow Metabol, Vol. 1, pp. 53-60 (1981); and Sauter and Rudin, Stroke, Vol. 17, pp. 1228-1234 (1986)]. • 3. Inhibition of mitochondrial permeability transition in isolated rodent brain-derived mitochondria and prevention of cell death in an in vitro model of ischemic brain damage, e.g. as described in Rytter et al., JCBF, Vol. 23, pp. 23-33.

| Substance | inhibition of calcium-induced mitochondrial swelling |
| --- | --- |
| [γ-hydroxy-MeLeu]^4-Ciclosporin | inhibitors of calcium-induced mitochondrial swelling |
| [Melle]^4-Ciclosporin | inhibitors of calcium-induced mitochondrial swelling |
